According to PMC9958325 (Nature Communications, 2023):
Values joined by “and” are separate entries in the source; they are usually repeats but may differ in a detail not shown here. Identical values can stand only once.

What was measured:
[1] = Pharmacokinetic study in PXB-mice (human liver-chimeric)
HeLa-ACE2-TMPRSS2 cells = experiment: Intracellular concentrations of compounds (LC/MS), HeLa-ACE2-TMPRSS2 cells; settings: 6 h; for Intracellular amount, individual: listed as TKB-0245

CC(C)(C)[C@H](NC(=O)C(F)(F)F)C(=O)N1C[C@H]2[C@@H]([C@H]1C(=O)N[C@@H](C[C@@H]1CCNC1=O)C(=O)c1nc3c(F)cccc3s1)C2(C)C [TKB245]
Vdss ([1]; PXB-mice, 10 mg/kg p.o., mean ± S.E.): 0.1941 ± 0.03543 L/kg
AUC ([1]; PXB-mice, 10 mg/kg p.o., mean ± S.E., n=3): 5120 ± 430 ng·h/mL
Plasma concentration ([1]; PXB-mice, i.v. 10 mg/kg, 10 min, individual mice): 8436.5 ng/mL
Plasma concentration ([1]; PXB-mice, i.v. 10 mg/kg, 10 min, individual mice, listed as TKB0245, 10 mg/kg): 8433.5 ng/mL and 10627.1 ng/mL
Plasma concentration ([1]; PXB-mice, i.v. 10 mg/kg, 0.17 hr, individual mice, listed as TKB0245, 10 mg/kg): 8440 ng/mL and 8430 ng/mL and 10630 ng/mL
Plasma concentration ([1]; PXB-mice, i.v. 10 mg/kg, 60 min, individual mice, listed as TKB0245, 10 mg/kg): 2816 ng/mL and 2507.3 ng/mL and 3230 ng/mL
Plasma concentration ([1]; PXB-mice, i.v. 10 mg/kg, 1 hr, individual mice, listed as TKB0245, 10 mg/kg): 2820 ng/mL and 2510 ng/mL and 3230 ng/mL
Plasma concentration ([1]; PXB-mice, i.v. 10 mg/kg, 240 min, individual mice, listed as TKB0245, 10 mg/kg): 47 ng/mL and 52.3 ng/mL and 95 ng/mL
Plasma concentration ([1]; PXB-mice, i.v. 10 mg/kg, 4 hr, individual mice, listed as TKB0245, 10 mg/kg): 0.05 µg/ml (2×) and 0.09 µg/ml
Plasma concentration ([1]; PXB-mice, i.v. 10 mg/kg, 480 min, individual mice, listed as TKB0245, 10 mg/kg): 10.4 ng/mL and 14.8 ng/mL and 20 ng/mL
Plasma concentration ([1]; PXB-mice, i.v. 10 mg/kg, 8 hr, individual mice, listed as TKB0245, 10 mg/kg): 0.01 µg/ml (2×) and 0.02 µg/ml
Plasma concentration ([1]; PXB-mice, i.v. 10 mg/kg, 1440 min, individual mice, listed as TKB0245, 10 mg/kg): 13.6 ng/mL and 11.6 ng/mL and 12.4 ng/mL
Plasma concentration ([1]; PXB-mice, i.v. 10 mg/kg, 24 hr, individual mice): 10 ng/mL
Plasma concentration ([1]; PXB-mice, p.o. 10 mg/kg, 10 min, individual mice, listed as TKB0245, 10 mg/kg): 914.5 ng/mL and 1553.1 ng/mL and 2872.3 ng/mL
Plasma concentration ([1]; PXB-mice, p.o. 10 mg/kg, 0.17 hr, individual mice, listed as TKB0245, 10 mg/kg): 910 ng/mL and 1550 ng/mL and 2870 ng/mL
Plasma concentration ([1]; PXB-mice, p.o. 10 mg/kg, 60 min, individual mice, listed as TKB0245, 10 mg/kg): 1278.1 ng/mL and 1343.7 ng/mL and 1794.3 ng/mL
Plasma concentration ([1]; PXB-mice, p.o. 10 mg/kg, 1 hr, individual mice, listed as TKB0245, 10 mg/kg): 1280 ng/mL and 1340 ng/mL and 1790 ng/mL
Plasma concentration ([1]; PXB-mice, p.o. 10 mg/kg, 240 min, individual mice, listed as TKB0245, 10 mg/kg): 152.9 ng/mL and 98.8 ng/mL and 128.8 ng/mL
Plasma concentration ([1]; PXB-mice, p.o. 10 mg/kg, 4 hr, individual mice, listed as TKB0245, 10 mg/kg): 150 ng/mL and 100 ng/mL and 130 ng/mL
Plasma concentration ([1]; PXB-mice, p.o. 10 mg/kg, 480 min, individual mice, listed as TKB0245, 10 mg/kg): 41.6 ng/mL and 34.4 ng/mL and 32.8 ng/mL
Plasma concentration ([1]; PXB-mice, p.o. 10 mg/kg, 8 hr, individual mice, listed as TKB0245, 10 mg/kg): 0.04 µg/ml and 0.03 µg/ml (2×)
Plasma concentration ([1]; PXB-mice, p.o. 10 mg/kg, 1440 min, individual mice, listed as TKB0245, 10 mg/kg): 26 ng/mL and 21.9 ng/mL and 27.9 ng/mL
Plasma concentration ([1]; PXB-mice, p.o. 10 mg/kg, 24 hr, individual mice, listed as TKB0245, 10 mg/kg): 0.03 µg/ml (2×) and 0.02 µg/ml
Plasma concentration ([1]; i.v., 10 min, individual animals (3 per time point), LC/MS/MS, listed as TKB0245): 8436.54 ng/mL and 8433.45 ng/mL and 10625.21 ng/mL
Plasma concentration ([1]; i.v., 60 min, individual animals (3 per time point), LC/MS/MS, listed as TKB0245): 2816.02 ng/mL and 2507.33 ng/mL and 3228.12 ng/mL
Plasma concentration ([1]; i.v., 240 min, individual animals (3 per time point), LC/MS/MS, listed as TKB0245): 47.02 ng/mL and 52.34 ng/mL and 93.04 ng/mL
Plasma concentration ([1]; i.v., 480 min, individual animals (3 per time point), LC/MS/MS, listed as TKB0245): 10.40 ng/mL and 14.76 ng/mL and 18.04 ng/mL
Plasma concentration ([1]; i.v., 1440 min, individual animals (3 per time point), LC/MS/MS, listed as TKB0245): 13.63 ng/mL and 11.63 ng/mL and 10.43 ng/mL
Oral F ([1]; male PXB-mouse 10 mg/kg i.v. and p.o., dose-normalized AUC ratio, 10 mg/kg): 47.7% and 48% and 48¶ %
Plasma concentration ([1]; p.o., 10 min, individual animals (3 per time point), LC/MS/MS, listed as TKB0245): 914.50 ng/mL and 1553.11 ng/mL and 2872.30 ng/mL
Plasma concentration ([1]; p.o., 60 min, individual animals (3 per time point), LC/MS/MS, listed as TKB0245): 1278.12 ng/mL and 1343.67 ng/mL and 1794.27 ng/mL
Plasma concentration ([1]; p.o., 240 min, individual animals (3 per time point), LC/MS/MS, listed as TKB0245): 152.94 ng/mL and 98.79 ng/mL and 128.84 ng/mL
Plasma concentration ([1]; p.o., 480 min, individual animals (3 per time point), LC/MS/MS, listed as TKB0245): 41.61 ng/mL and 34.39 ng/mL and 32.81 ng/mL
Plasma concentration ([1]; p.o., 1440 min, individual animals (3 per time point), LC/MS/MS, listed as TKB0245): 25.98 ng/mL and 21.91 ng/mL and 27.88 ng/mL
Intracellular amount, avg (HeLa-ACE2-TMPRSS2 cells; Hela ACE2 TMPRSS2, 10uM): 0.603 pmol(total)
Intracellular amount, individual (HeLa-ACE2-TMPRSS2 cells; Hela ACE2 TMPRSS2, 10uM): 0.6360 pmol(total) and 0.5701 pmol(total)
Intracellular amount, avg (HeLa-ACE2-TMPRSS2 cells; Hela ACE2 TMPRSS2, 50uM): 4.167 pmol(total)
Intracellular amount, individual (HeLa-ACE2-TMPRSS2 cells; Hela ACE2 TMPRSS2, 50uM): 4.585 pmol(total) and 3.749 pmol(total)
Intracellular amount, avg (HeLa-ACE2-TMPRSS2 cells; Hela ACE2 TMPRSS2, 100uM): 8.85 pmol(total)
Intracellular amount, individual (HeLa-ACE2-TMPRSS2 cells; Hela ACE2 TMPRSS2, 100uM): 8.312 pmol(total) and 9.388 pmol(total)
